Consider 2 compounds from patent US20110045076A1, “LINEAR ORDER RELEASE POLYMER” (priority 2008, published 2011).

Common to all, as to format: physicochemical
A short description of data set [1]: In vitro release of AMP from PEG2000-containing PU rods. The following applies: pH 4.2 acetate buffer; for release profile: 37° C. The method, then: Incorporation of AMP in PU matrix: Homogenous distribution of AMP and PEG2000 in the PU matrix was achieved by solvent casting. AMP (500 mg), PEG2000 (500 mg (5% w/w), 1000 mg (10% w/w) and 1500 mg (15% w/w)) and PU (added to make the total weight of PEG+AMP+PU mixture to 10 g) were dissolved in 75:25 mixture of dichloromethane and tetrahydrofuran. About 75% of the solvent was removed under reduced pressure and the viscous solution of PU, AMP and PEG2000 was poured into a silanized crystallization flask which was further dried under air at a flow rate of 4 L/min for 2-3 days. The […] incorporated PU films thus obtained were cut into small pieces and further dried under high vacuum until constant weight was achieved.
Extrusion of PEG2000 and AMP loaded solid cross-sectional PU: Extrusion was conducted at 165-175° C. into solid cross-sectional rods using a lab scale extruder (CSI Max Mixing Extruder CS-194A, Custom Scientific Instrument Inc., Easton, Pa.). The extruded and molten polymer output from the extruder was immediately fed to an aluminum mold (4.3 mm diameter, 25 cm length, previously spray coated with mold release agent) maintained at 120° C. The mold was cooled to below 80° C. and opened carefully without stretching the PU rod. The release profile of AMP was measured from PU rods using pH 4.2 25 mM acetate buffer (osmolarity adjusted to 310 mOsm/kg using NaCl, 0.02% sodium azide) at 37° C. and 60 rpm. About 2 cm length segments were cut from the solid cross-sectional AMP loaded PU rods. The dimensions (length and diameter) and weight of each segment were recorded. The sink was replaced with fresh buffer every 24±0.5 h for 10 days. HPLC analyses were performed and the cumulative release was calculated by integrating the area under the curve using Kaleidagraph software (Synergy Software, Reading, Pa.). The release study for each loading was performed on triplicate samples. […] A burst release is obtained in all PEG-PU compositions that is proportional to the PEG concentration.

The nature of data set [2]: Release of Tenofovir from Tecoflex EG-80A and EG-85A small rings with and without PEG2000. The following applies: Tecoflex EG-80A and EG-85A matrices, 50 mg/g, 5% w/w PEG, pH 4.2 acetate buffer, 15 days. As to the method: Incorporation of Tenofovir and PEG2000 in Tecoflex EG-80A and EG-85A matrices: Homogenous distribution of Tenofovir and PEG2000 in Tecoflex EG-80A or EG-85A_matrices were achieved by solvent casting. Tenofovir (500 mg) with or without PEG2000 (500 mg) were dissolved in 75:25 mixture of dichloromethane and tetrahydrofuran. About 75% of the solvent was removed under reduced pressure and the viscous solution was poured into a silanized crystallization flask which was further dried under air at a flow rate of 4 L/min for 2-3 days. The Tenofovir incorporated polymer films thus obtained were cut into small pieces and further dried under high vacuum until constant weight was achieved.
Solid cross-sectional rods were obtained by extrusion of polymer films obtained in the above step at 155-165° C. using a lab scale extruder (CSI Max Mixing Extruder CS-194A, Custom Scientific Instrument Inc., Easton, Pa.). Small rings were fabricated by joining the ends of rods of approximately 6 cm in length. The release profile of Tenofovir was measured from Tenofovir loaded small rings using pH 4.2 25 mM acetate buffer (osmolarity adjusted to 310 mOsm/kg using NaCl, 0.02% sodium azide) at 37° C. and 60 rpm. […] HPLC analyses were performed and the cumulative release was calculated by integrating the area under the curve using Kaleidagraph software (Synergy Software, Reading, Pa.). […]

A short description of data set [3]: Release of Tenofovir from Tecoflex EG-93A matrices with PEG2000 with and without salts. The following applies: 5% w/w PEG. The method, then: Incorporation of Tenofovir and PEG2000 and salts in EG-93A matrices: Homogenous distribution of Tenofovir, PEG2000 with and without salts in Tecoflex EG-93A_matrices were achieved by solvent casting. Tenofovir (250 mg), PEG2000 (250 mg (5% w/w)) and salts (NaCl=50 mg (1% w/w) or 125 mg (2.5% w/w) or CaCl2=125 mg (2.5% w/w)) were dispersed in 75:25 mixture of dichloromethane and tetrahydrofuran followed by sonication for 30 minutes. About 75% of the solvent was removed under reduced pressure and the viscous solution was poured into a silanized crystallization flask which was further dried under air at a flow rate of 4 L/min for 2-3 days. The Tenofovir incorporated polymer films thus obtained were cut into small pieces and further dried under high vacuum until constant weight was achieved. About 1.2 g of the polymer film pieces were taken in a 20 mL scintillation vial which was incubated at 210° C. for about 5-6 minutes to allow the polymer pieces to melt and fuse to form a continuous film in the bottom of the vial. Then 5 mL of sink (25 mM pH 4.2 buffer, osmolarity adjusted to 310 mOsm/kg with NaCl, and 0.02% sodium azide) was added. The sink was replaced with fresh buffer every 24±0.5 h for 15 days. HPLC analyses were performed and the cumulative release was calculated by integrating the area under the curve using Kaleidagraph software (Synergy Software, Reading, Pa.). […]

Take `Nc1ncnc2c1ncn2[C@@H]1O[C@H](COP(=O)(O)O)[C@@H](O)[C@H]1O` [AMP, Adenosine Monophosphate]: the release profile entry in data set [1] (5% w/w PEG in PU) was “zero order”; in data set [1] (10% w/w PEG in PU) it was “diffusion limited”; in data set [1] (15% w/w PEG in PU) it was “diffusion limited”. The “effect of PEG incorporation on release” value in data set [1] (PEG-PU rods vs PU) is “increases the overall amount of drug released per day”.

`C[C@H](Cn1cnc2c(N)ncnc21)OCP(=O)(O)O` [Tenofovir, ({[(2R)-1-(6-amino-9H-purin-9-yl)propan-2-yl]oxy}methyl)phosphonic acid]: in data set [2], the “effect of PEG incorporation on release” value is listed as “increases the overall amount of drug released per day”. The release profile result in data set [3] (2.5 w/w CaCl2) and in data set [3] (2.5 w/w NaCl) was “nearly zero-order release” throughout.
